In patent publication US10155742B2, “Halofuginol derivatives and their use in cosmetic and pharmaceutical compositions” (President and Fellows of Harvard College, priority 2012, dated 2018):
“Also recorded” adds a separate entry of the source. Where two headings read alike, the source gives them in different places.

Legend:
[1] = tested on: translation in rabbit reticulocyte lysate (RRL); assay: In vitro translation assay in rabbit reticulocyte lysate (RRL); settings: for inhibition of translation of luciferase RNA in RRL: luminescence assay, FIG. 2A/2B
[2] = target: T1, ProRS (amino acids 998-1513 of human EPRS) (Homo sapiens, UniProt P07814); assay: [3H]-HFol binding to immobilized ProRS; settings: for inhibition of [3H]-HFol binding to ProRS: FIG. 4A
T1 construct: Purified 6-his tagged ProRS (amino acids 998-1513 of human EPRS) was immobilized on N-NTA beads; made in house; host or cells: E. coli BL21(DE3), plasmid pKS509
T1 sequence (P07814 998-1512 limits assumed): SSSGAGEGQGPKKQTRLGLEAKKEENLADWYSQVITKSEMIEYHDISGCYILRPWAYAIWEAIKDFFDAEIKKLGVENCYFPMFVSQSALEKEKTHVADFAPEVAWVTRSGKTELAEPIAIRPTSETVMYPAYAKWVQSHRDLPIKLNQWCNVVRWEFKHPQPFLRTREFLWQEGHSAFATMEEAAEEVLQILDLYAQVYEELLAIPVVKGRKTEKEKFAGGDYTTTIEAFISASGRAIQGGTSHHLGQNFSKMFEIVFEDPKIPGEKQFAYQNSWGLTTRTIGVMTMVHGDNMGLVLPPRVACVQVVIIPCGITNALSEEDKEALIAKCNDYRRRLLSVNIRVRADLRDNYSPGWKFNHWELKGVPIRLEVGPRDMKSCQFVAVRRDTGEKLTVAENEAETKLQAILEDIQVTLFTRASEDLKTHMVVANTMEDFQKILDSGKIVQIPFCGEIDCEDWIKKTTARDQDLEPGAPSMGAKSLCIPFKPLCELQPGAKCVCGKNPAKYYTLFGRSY
Method: B) [^3H]-HFol binding was assayed as described above in the presence of indicated concentrations of proline. […] IMR90 lung fibroblasts were treated with a siRNAs directed against EPRS (Dharmacon) or a control siRNA mixture for 48 hours, and then treated with HF for 2 hours (pGCN2) and examined for EPRS protein levels, GCN2 total protein and phospho-GCN2 by Western blot. D) EPRS depleted IMR90 cells were compared to control cells with respect to HF induction of the AAR marker CHOP by Q-PCR. Equal concentrations of total cellular protein were loaded in each Western blot lane. CHOP expression was standardized to expression of phosphoglycerate kinase 1 (PGK1) and glyceraldehyde-3-phosphate-dehydrogenase (GAPDH). Data shown are representative of three separate experiments.
Prolyl sulfamoyl adenosine (ProSAd) or alanyl sulfamoyl adenosine (AlaSAd), analogs of the corresponding aminoacyl adenylate, were coincubated with [^3H]-HFol as in FIG. 2. […] Binding of [^3H]-HFol was assayed as in FIG. 3, except that the nucleotide type and concentration was varied as indicated.
To examine HF binding to ProRS, ^3H HFol was synthesized by American Radiochemicals (St. Louis) by reduction of MAZ1310 (3) at the ketone with NaB^3H4, followed by removal of the Boc protecting group with 10% trifluoroacetic acid in dichloromethane, and HPLC purification of the ^3H HFol. 100 nM ^3H HFol was incubated with ProRS immobilized on Ni-NTA beads (Pierce) in 50 mM Tris pH 7.5, 5 mM MgCl2, 20 mM Imidazole, 1 mM DTT, 10% glycerol, and nucleotides, proline, or HF derivatives at room temperature for 10 minutes as indicated. After incubation, beads were washed twice with ice-cold wash buffer (50 mM Tris 7.5; 20 mM Imidazole; 1 mM DTT, 20% glycerol). ^3H HFol bound after washing was measured by liquid scintillation counting. Ni-NTA beads incubated with E. coli extracts lacking tagged ProRS were used as a background reference in all experiments.

P. falciparum (Dd2) = assay: In vitro P. falciparum viability assay with excess proline; type: cell-based, Plasmodium falciparum; settings: Dd2 strain in red blood cells, relative to unmodified RPMI, FIG. 23
Method: The activity of halofuginone and amodiaquine as inhibitors of P. falciparum growth was tested in erythrocytes in RPMI with or without excess amino acids as indicated, and IC50 values were normalized to IC50 values obtained under standard conditions using unmodified RPMI (numbers in bold). The absolute IC50 values for halofuginone and amodiaquine for RPMI are reported in parentheses. Fold amino acid indicated (e.g., “5×”) is relative to the concentration of the respective amino acid in RPMI. Fold concentration of D-Pro and L-Orn are relative to L-Pro.
In vitro potency against P. falciparum (DD2) was assessed using a modified version of the method of Plouffe and coworkers (Plouffe et al. Proc. Natl. Acad. Sci. USA 105:9059-64 (2008)). Parasites were cultured in the presence of drug in RPMI (Sigma) containing 4.16 mg/ml Albumax in a total volume of 50 μl at a 2.5% hematocrit and an initial parasitemia of 0.3% in black Greiner GNF clear-bottom plates. Cultures were incubated 72 hr at 37° C. under […], 4% CO2 and 3% O2. At the end of the incubation, SYBR green was added to a dilution of 1:10,000 and plates were stored overnight (or until ready to be read) at −80° C. Just before reading, plates were centrifuged at 700 rpm and fluorescence was read using 480 nm excitation and 530 nm emission frequencies. Compound concentrations that inhibit parasite replication reduce the fluorescence intensity of SYBR green bound to parasite DNA.

[3] = target: T2, prolyl tRNA synthetase domain of human EPRS (ProRS) (Homo sapiens, UniProt P07814)
T2 sequence (P07814 998-1512 limits assumed): T1 sequence (P07814 998-1512 limits assumed)
Method: Activity of the Prolyl tRNA synthetase domain of EPRS (ProRS) was measured as ^3H Pro incorporation into the charged tRNA pool. […] Purified enzyme was visualized as a single band by Laemmli gel electrophoresis/Coomassie staining.
Purified enzyme was visualized as a single band by Laemmli gel electrophoresis/Coomassie staining. […] In preliminary experiments, the assay was established to be linear over the time (6 min) and conditions used (30 degrees, 2 mM ATP, 1 μg/μl total tRNA purified from rabbit liver).
For the rapid, quantitative isolation of aminoacylated tRNA^pro from synthetase reaction mixtures, reactions were stopped with 100 μl of ice cold 20 mM MOPS pH6.2, 200 mM NaCl, 10 mM EDTA, 30% Glycerol and placed on ice. Samples were added to 15 μl of packed Mono Q HP beads (GE Healthcare) equilibrated in the same buffer. Samples were incubated with beads on ice for 10 min, beads were pelleted by 5 sec centrifugation in a tabletop microfuge and washed 3× 1 ml of wash buffer (20 mM MOPS pH6.2, 50 mM NaCl), and recovered pellets counted in a liquid scintillation counter. Background binding of ^3H Pro to beads (using reaction mix with either no enzyme added or no tRNA added) was negligible (20-40 cpm).

[4] = tested on: primary human prostate stromal (hPrSc) cells, s100a4; assay: S100A4 mRNA in primary human prostate stromal cells; type: cell-based; settings: with or without TGF 10 ng/ml, FIG. 28
Method: (§1) Primary human prostate stromal (hPrSc) cells were left in low-serum media (0.2%) for 24 hours, and treated consecutively twice for 48 hours with or without tumor-growth factor beta (TGF; 10 ng/ml), halofuginone (HF) or halofuginol (HFol) at the concentrations indicated. Relative mRNA levels of the fibrosis/tissue invasion marker s100a4 was measured by quantitative real-time PCR using glyceraldehyde-3-phosphate dehydrogenase (GAPDH) as internal control.

[5] = tested on: primary human prostate stromal (hPrSc) cells, col1a1; assay: Type I collagen (col1a1) mRNA in primary human prostate stromal cells; type: cell-based; settings: treated twice for 48 hours, FIG. 27
Method: as §1, with “hours,” for “hours with or without tumor-growth factor beta (TGF; 10 ng/ml),”, “myofibroblastic markeralpha 1 collagen type 1 (col1a1)” for “fibrosis/tissue invasion marker s100a4”

[6] = tested on: Th17 cell differentiation (primary murine CD4+ CD25- T cells); assay: Th17 differentiation of T cells; type: cell-based, mouse; settings: 6 nM (3 ng/mL) borrelidin, FIG. 19
Method: A) Primary murine CD4^+ CD25^− T cells were activated through the T-cell receptor in Th17 polarizing conditions (Sundrud et al. Science 324:1334-8 (2009)) in the presence of either 10 nM MAZ1310 or HF and the following amino acid supplements: 10× concentration of essential (EAA) or non-essential (NEAA) amino acids mixtures (Biowhittaker or Invitrogen, respectively), or 10× concentrations (1 mM) of indicated individual amino acids. Data are presented as mean percentage of Th17 (IL-17+ IFNg−) cells +/−SD from triplicate wells. B) Th17 differentiation was assayed as described above, in the absence or presence of HF or borrelidin, with or without 1 mM threonine or proline supplementation. C) MEFs were treated with or without HF (50 nM) and/or proline (2 mM) for 4 hours (CHOP, S100A4) or 24 hours (ColIA1, Col1A2). mRNA expression was normalized to expression of TBP and is shown relative to untreated control. […] Confidence intervals (p-value) for the effect of HF alone versus HF+Pro were determined using a two-tailed Student's t test. […] D) Cells were pre-incubated for 24 hours with HF and proline as indicated, and secretion of Type I procollagen was measured after 24 hours in conditioned medium of cells plated by Western blot and quantitated using Image J software (top panel). Total protein synthesis was measured as TCA-precipitable ^35S in a scintillation counter (bottom panel). […]

[7] = inhibitor 1 μM, anti-myc Western blot, FIG. 2C

For `O=C(C[C@@H]1NCCC[C@H]1O)Cn1cnc2cc(Br)c(Cl)cc2c1=O` (single isomer, unassigned) [2S,3R isomer of HF], the “inhibition of translation of luciferase RNA in RRL” value (shortened to “inhibition of translation … in RRL”) [1] was “no activity”.
In the case of `C[C@H](N)C(=O)NS(=O)(=O)OC[C@H]1O[C@@H](n2cnc3c(N)ncnc32)[C@H](O)[C@@H]1O` [AlaSAd, alanyl sulfamoyl adenosine], the “inhibition of [3H]-HFol binding to ProRS” value ([2]; 50 nM competitor) was “partially inhibited”.
With `O=C(C[C@H]1NCCC[C@@H]1O)Cn1cnc2ccccc2c1=O` [FF, febrifugine] the “fold increase of effective IC50 on addition of 5× proline” value (P. falciparum (Dd2)) was roughly 5 fold, the “translation of Nopropep (proline-free polypeptide)” value [1, 7] was “no effect” and the “translation of Propep (proline dipeptide containing polypeptide)” value [1, 7] was “prevent translation”. The “inhibition of translation … in RRL” value [1] was “inhibited”.
In the case of `O=c1c2cc(Cl)c(Br)cc2ncn1C[C@@H](O)C[C@H]1NCCC[C@@H]1O` [HFolA, halofuginol], the “inhibition of ProRS activity” value ([3]; 3H Pro incorporation into tRNA) was “active; also recorded: inhibits; also recorded: potent inhibitor”.
For `O=c1c2cc(Cl)c(Br)cc2ncn1C[C@H](O)C[C@H]1NCCC[C@@H]1O` [HFolA, halofuginol], the “expression of the activated fibroblast marker S100A4” value [4] was “inhibit”, the “inhibition of ProRS (EPRS) activity” value ([3]; 100 μM Pro, FIG. 13) was “inhibits; also recorded: potency similar to the parent compound” and the “Type 1 collagen expression in fibroblasts in culture” value [5] was “inhibit”.
In the case of `CC(C)(C)OC(=O)N1CCC[C@H](O)[C@H]1CC(=O)Cn1cnc2cc(Br)c(Cl)cc2c1=O` [MAZ1310], the “inhibition of translation … in RRL” value [1] was “no activity” and the “inhibition of ProRS activity” value ([3]; 14C Proline used as trace label, FIG. 9) was “does not block; also recorded: no inhibitory effect”.
With `Nc1ncnc2c1ncn2[C@@H]1O[C@H](COS(=O)(=O)NC(=O)[C@@H]2CCCN2)[C@@H](O)[C@H]1O` [ProSAd, 5-O—[N-(L-prolyl)-sulfamoyl]adenosine] the “inhibition of [3H]-HFol binding to ProRS” value ([2]; 10 nM competitor) was “inhibited”.
In the case of `[3H][C@@](O)(C[C@H]1NCCC[C@@H]1O)Cn1cnc2cc(Br)c(Cl)cc2c1=O` [[^3H]-HFol], the “direct binding to immobilized ProRS” value ([2]; 5 mM MgCl2, 2 mM ATP, 10 min RT) was “bound directly”.
For `CCN(CC)Cc1cc(Nc2ccnc3cc(Cl)ccc23)ccc1O` [amodiaquine], the “fold increase of effective IC50 on addition of 5× proline” value (P. falciparum (Dd2)) was “did not affect”.
In the case of `C[C@@H]1C[C@H](C)C[C@H](C)[C@@H](O)CC(=O)O[C@H]([C@@H]2CCC[C@H]2C(=O)O)C/C=C/C=C(/C#N)[C@H](O)[C@@H](C)C1` [borrelidin], the “inhibition of Th17 cell differentiation” value [6] was “selectively inhibits” and the “inhibition of Th17 cell differentiation” value ([6]; listed as Borrelidin) was “inhibited”.
